Consider 13 compounds from patent US6479509B1, “Method of promoting smoking cessation” (priority 2000, dated 2002).

Molecules are shown by their SMILES. “Also recorded” adds a separate entry of the source.

For experiment [1], the system named is nicotine-induced antinociception. In words: Blockade of nicotine-induced antinociception, tail-flick test. The format is in vivo, mice. Conditions: for AD50, nicotine-induced antinociception in tail-flick test: s.c. administration; for AD50, nicotine-induced antinociception in tail-flick test / Blockade of nicotine-induced antinociception (in words) / Relative potency in blocking nicotine's antinociceptive effect (in words, comparator in the value) / AD50 Tail-Flick: mice; for Blockade of nicotine-induced antinociception (in words) / Relative potency in blocking nicotine's antinociceptive effect (in words, comparator in the value): tail-flick; for Tail-flick, % blockade @ dose: s.c.; for AD50 Tail-Flick: blocking antinociception of nicotine 2.5 mg/kg, systemic administration. How it is done: Anitinociception. The tail-flick method of D'Amour and Smith (1941) as modified by Dewey et al. (1970) was used. A control response (2-4 s) was determined for each animal before treatment, and a test latency was determined after drug administration. To minimize tissue damage, a maximum latency of 10 s was imposed. Antinociceptive response was calculated as percent maximum possible effect (% MPE), where % MPE=[((test-control)/(10-control))×100], Groups of 8 to 12 animals were used for each dose and for each treatment. Mice were tested 5 min after nicotine administration for the dose-response evaluation. Antagonism studies were carried out by pretreating the mice s.c. with either saline or various drugs at different times before nicotine. The animals were tested 5 min after administration of nicotine.
(§1) Data were analyzed statistically by an analysis of variance followed by the Fisher's P least-significant difference multiple comparison test. The null hypothesis was rejected at the […].
A general note: Thermal pain tests record how soon the animal reacts.

The target of another experiment is T1, Dopamine transporter (Rattus norvegicus, UniProt P23977).
T1 construct: from tissue; host or cells: brain
Conditions: brain; read-out: Dopamine [3H]WIN 35,428 IC50; cited from earlier work.

Experiment [2] has as its target T2, Norepinephrine transporter (Rattus norvegicus, UniProt Q63380).
T2 construct: from tissue; host or cells: brain
Conditions: brain; read-out: Norepinephrine [3H]Nisoxetime IC50; cited from earlier work.

The target of another experiment is T3, Serotonin transporter (Rattus norvegicus, UniProt P31652).
T3 construct: from tissue; host or cells: brain
Conditions: brain; read-out: Serotonin [3H]Paroxetine IC50; cited from earlier work.

Experiment [3] deals with nicotine-induced hypothermia. Kind of experiment: Blockade of nicotine-induced hypothermia (body temperature). Conditions: mice; for AD50 Hypothermia: blocking nicotine-induced hypothermia, systemic administration. It counts as in vivo, mice. How it is done:
Body Temperature. Rectal temperature was measured by a thermistor probe (inserted 24 mm) and digital thermometer (Yellow Springs Instrument Co., Yellow Springs, Ohio). Readings were taken just before and at 30 min after the s.c. injection of nicotine. For antagonism studies, mice were pretreated with either saline or various drugs 10 min before nicotine. The difference in rectal temperature before and after treatment was calculated for each mouse. The ambient temperature of the laboratory varied from 21 to 24° C. from day to day.
as §1

For orientation: IC50 means the concentration that inhibits the measured activity by half.

T1 sequence (P23977 whole entry): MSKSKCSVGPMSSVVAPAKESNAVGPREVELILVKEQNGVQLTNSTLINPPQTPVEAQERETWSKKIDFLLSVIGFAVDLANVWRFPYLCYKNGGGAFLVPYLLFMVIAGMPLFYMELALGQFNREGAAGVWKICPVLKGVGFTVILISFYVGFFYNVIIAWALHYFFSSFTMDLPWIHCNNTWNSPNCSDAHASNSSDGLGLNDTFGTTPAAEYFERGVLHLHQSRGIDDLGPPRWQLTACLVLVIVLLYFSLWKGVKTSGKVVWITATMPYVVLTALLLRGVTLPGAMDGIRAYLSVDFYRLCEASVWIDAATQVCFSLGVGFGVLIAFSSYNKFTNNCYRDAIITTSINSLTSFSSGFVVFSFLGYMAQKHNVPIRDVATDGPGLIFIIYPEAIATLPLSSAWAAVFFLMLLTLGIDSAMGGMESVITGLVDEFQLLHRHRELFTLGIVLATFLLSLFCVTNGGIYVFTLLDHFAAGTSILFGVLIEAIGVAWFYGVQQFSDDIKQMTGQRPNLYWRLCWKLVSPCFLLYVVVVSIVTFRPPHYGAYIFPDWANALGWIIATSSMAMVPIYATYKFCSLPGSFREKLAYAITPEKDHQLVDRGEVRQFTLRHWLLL
T2 sequence (Q63380 1-617): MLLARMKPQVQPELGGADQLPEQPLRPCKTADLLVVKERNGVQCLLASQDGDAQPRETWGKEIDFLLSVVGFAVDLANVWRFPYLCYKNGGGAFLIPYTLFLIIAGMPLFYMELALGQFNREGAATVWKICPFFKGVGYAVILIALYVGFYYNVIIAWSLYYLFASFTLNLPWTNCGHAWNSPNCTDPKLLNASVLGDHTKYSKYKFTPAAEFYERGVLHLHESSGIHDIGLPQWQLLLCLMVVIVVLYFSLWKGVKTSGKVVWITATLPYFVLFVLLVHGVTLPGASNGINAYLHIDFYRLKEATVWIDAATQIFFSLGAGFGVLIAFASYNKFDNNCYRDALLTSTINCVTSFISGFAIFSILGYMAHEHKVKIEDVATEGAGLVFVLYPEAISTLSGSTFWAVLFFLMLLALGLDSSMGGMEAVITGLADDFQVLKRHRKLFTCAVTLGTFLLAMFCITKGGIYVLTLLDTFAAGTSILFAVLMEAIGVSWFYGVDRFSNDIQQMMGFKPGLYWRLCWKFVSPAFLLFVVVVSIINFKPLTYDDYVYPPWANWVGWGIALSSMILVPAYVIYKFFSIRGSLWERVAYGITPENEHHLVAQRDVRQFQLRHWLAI
T3 sequence (P31652 whole entry): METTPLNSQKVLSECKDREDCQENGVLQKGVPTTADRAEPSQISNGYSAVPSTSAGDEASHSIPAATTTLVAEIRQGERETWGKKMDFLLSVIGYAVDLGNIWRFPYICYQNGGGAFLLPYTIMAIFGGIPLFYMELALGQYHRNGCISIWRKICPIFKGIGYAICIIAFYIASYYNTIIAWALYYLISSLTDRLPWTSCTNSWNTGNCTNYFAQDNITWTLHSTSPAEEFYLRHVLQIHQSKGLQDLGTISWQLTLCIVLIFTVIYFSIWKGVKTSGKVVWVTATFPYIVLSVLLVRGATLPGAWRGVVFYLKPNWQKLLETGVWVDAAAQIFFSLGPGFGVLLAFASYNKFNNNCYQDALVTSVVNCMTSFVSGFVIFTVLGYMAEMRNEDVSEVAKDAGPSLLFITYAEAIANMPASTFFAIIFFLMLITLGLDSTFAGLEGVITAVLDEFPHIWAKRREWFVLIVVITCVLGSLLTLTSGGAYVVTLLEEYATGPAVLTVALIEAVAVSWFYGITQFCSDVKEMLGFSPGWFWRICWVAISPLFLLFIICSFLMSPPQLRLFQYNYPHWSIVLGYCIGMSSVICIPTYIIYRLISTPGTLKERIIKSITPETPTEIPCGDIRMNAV

As to `CC(N)Cc1ccccc1` (centres unmarked) [Amphetamine, reference compound], in experiment [1], the “AD50, nicotine-induced antinociception in tail-flick test” value (“AD50, nicotine-induced antinociception” below) amounted to 36.9 μmol/hg and the “Blockade of nicotine-induced antinociception (in words)” value is on record as “blocked nicotine-induced antinociception”.

Consider `CC(NC(C)(C)C)C(=O)c1cccc(Cl)c1` (centres unmarked) [Bupropion, reference compound], for which, in experiment [1], the “AD50, nicotine-induced antinociception” value is 8 μmol/hg; the “Blockade of nicotine-induced antinociception (in words)” value is listed as “dose-dependently blocked”; the “Relative potency in blocking nicotine's antinociceptive effect (in words, comparator in the value)” value (“Relative potency” below) is “as potent as GBR 12909”.

Consider `Cn1c(=O)c2c(ncn2C)n(C)c1=O` [Caffeine, reference compound], for which, in experiment [1], the “AD50, nicotine-induced antinociception” value turned out to be 32.4 μmol/hg and the “Blockade of nicotine-induced antinociception (in words)” value is on record as “blocked nicotine-induced antinociception”.

As to `CNCCC(Oc1ccc(C(F)(F)F)cc1)c1ccccc1` (centres unmarked) [Fluoxetine, reference compound], the “Tail-flick, % blockade @ dose” value in experiment [1] (@ 86.7 μmol/hg) was 15% @ 86.7. For the same compound, in experiment [1], the “Blockade of nicotine-induced antinociception (in words)” value is recorded as “failed to significantly block”.

For the compound `Fc1ccc(C(OCCN2CCN(CCCc3ccccc3)CC2)c2ccc(F)cc2)cc1` [GBR 12909, reference compound], the “AD50, nicotine-induced antinociception” value in experiment [1] is reported as 8.4 μmol/hg.

On to `CCN(CC)CC(=O)Nc1c(C)cccc1C` [Lidocaine, reference compound], for which the “Tail-flick, % blockade @ dose” value in experiment [1] (@ 75 μmol/hg) came to 7% @ 75. Also, the “Blockade of nicotine-induced antinociception (in words)” value in experiment [1] was “failed to significantly block”.

On to `COC(=O)C(c1ccccc1)C1CCCCN1` (centres unmarked) [Methylphenidate, reference compound], for which, in experiment [1] (@ 74 μmol/hg), the “Tail-flick, % blockade @ dose” value is listed as 5% @ 74. Also, the “Blockade of nicotine-induced antinociception (in words)” value in experiment [1] is “failed to block”.

For the compound `CNCCC(Oc1ccccc1OC)c1ccccc1` (centres unmarked) [Nisoxetine, reference compound], in experiment [1], the “AD50, nicotine-induced antinociception” value came to 7.4 μmol/hg.

Turning to `CN1Cc2c(N)cccc2C(c2ccccc2)C1` (centres unmarked) [Nomifensine, reference compound], in experiment [1], the “AD50, nicotine-induced antinociception” value turned out to be 1.7 μmol/hg; the “Blockade of nicotine-induced antinociception (in words)” value is “dose-dependently blocked”; the “Relative potency” value is “five times more potent than GBR 12909”.

On to `CCN(CC)CCOC(=O)c1ccc(N)cc1` [Procaine, reference compound], for which the “Tail-flick, % blockade @ dose” value in experiment [1] (@ 75 μmol/hg) is 5% @ 75. Also, in experiment [1], the “Blockade of nicotine-induced antinociception (in words)” value is on record as “failed to significantly block”.

On to `COC(=O)C1C2CC[C@H](C[C@@H]1c1ccc(N)cc1)N2C` (some centres unmarked) [RTI-29], for which the 50% inhibitory concentration (IC50) at Dopamine transporter was 9.8 nM; in experiment [2], 151 nM; on Serotonin transporter, 5110 nM. In experiment [1], the “AD50 Tail-Flick” value is on record as 6.8 μmol/hg. Moreover, in experiment [1], the “Relative potency” value is given as “one-half as potent as cocaine; also recorded: approximately the same activity as WIN 35,065-2”.

Turning to `COC(=O)[C@H]1[C@@H](c2ccc(Cl)cc2)C[C@H]2CC[C@H]1N2C` [RTI-31], the “AD50 Tail-Flick” value in experiment [1] is on record as 7.2 μmol/hg. At Serotonin transporter, the half-maximal inhibitory concentration (IC50) was 44.5 nM. Further, in experiment [3], the “AD50 Hypothermia” value worked out at 1.1 μmol/hg; the “AD50, blockade of nicotine-induced hypothermia” value came to 1.1 µmol/kg; the “Blockade of nicotine-induced hypothermia (in words)” value was “significantly blocked”.

With `COC(=O)[C@H]1[C@@H](c2ccc(C)cc2)C[C@@H]2CC[C@H]1N2C` [RTI-32], the concentration for half-maximal inhibition (IC50) at Dopamine transporter is 1.7 nM. Also, in experiment [1], the “AD50 Tail-Flick” value was 2.0 μmol/hg. Further, in experiment [2], the IC50 is 60 nM. Also, in experiment [3], the “AD50 Hypothermia” value was 31.7 μmol/hg and the “Blockade of nicotine-induced hypothermia (in words)” value was “significantly blocked”.
